Source: paper PMC6505380, “An Extensively Humanized Mouse Model to Predict Pathways of Drug Disposition and Drug/Drug Interactions, and to Facilitate Design of Clinical Trials” (Drug Metabolism and Disposition, 2019)
“Also recorded” adds a separate entry of the source. Read-outs that look alike come from different tables or passages of the source.

How the values were obtained:
[1] = female, 8HUM, mouse, in vivo
Description: Blood sampling and analysis was carried out as described above and in Supplemental Data.

CYP2D6 [2] = test: Kinetic parameters of 4-hydroxyl debrisoquine formation in liver microsomes (HLM, 8HUM); format: in vitro ADME; details: pooled human liver microsomes (HLM)
Description: All samples were handled in amber tubes under conditions of subdued light for the duration of the procedure. […] The samples were then centrifuged at 3000g for 55 minutes at 4°C and an aliquot of the supernatant fraction was analyzed by LC-MS/MS.
Calibration curves were constructed with authentic metabolite standards and linear regression analysis used to calculate the amount of metabolite formed in each test sample. […] The 7-ethoxyresorufin O-deethylation assay was carried out as detailed below.

CYP1A2 [3] = target: T1, CYP1A2 (Homo sapiens, UniProt P05177); test: Enzyme inhibition assay, caffeine to paraxanthine (HLM, 8HUM microsomes); details: caffeine 220 μM in cocktail, furafylline 3, enoxacin 200, fluconazole 300, sulfaphenazole 3, quinidine 3, paroxetine 10, ketoconazole 1 μM
T1 sequence (P05177 1-516): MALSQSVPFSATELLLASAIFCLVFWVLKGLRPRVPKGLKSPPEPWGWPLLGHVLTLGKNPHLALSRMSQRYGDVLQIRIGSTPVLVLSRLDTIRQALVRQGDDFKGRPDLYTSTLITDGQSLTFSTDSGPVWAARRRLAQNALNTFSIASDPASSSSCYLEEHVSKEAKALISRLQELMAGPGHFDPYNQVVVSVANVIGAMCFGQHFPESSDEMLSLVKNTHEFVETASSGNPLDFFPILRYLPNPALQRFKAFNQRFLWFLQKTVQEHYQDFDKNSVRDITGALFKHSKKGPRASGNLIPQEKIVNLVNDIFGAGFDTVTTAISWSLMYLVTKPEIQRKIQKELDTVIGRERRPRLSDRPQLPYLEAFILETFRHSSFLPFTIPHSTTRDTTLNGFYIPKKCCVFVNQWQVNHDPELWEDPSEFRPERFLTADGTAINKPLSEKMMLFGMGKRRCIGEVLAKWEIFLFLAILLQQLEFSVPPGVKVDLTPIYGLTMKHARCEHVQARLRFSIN
Description: (§1) After a 5-minute preincubation at 37°C, reactions were initiated by addition of NADPH (1.3 mM). […] The samples were then centrifuged at 3000g for 55 minutes at 4°C, and an aliquot of the supernatant fraction was analyzed by LC-MS/MS. All experiments were performed at least in triplicate.

[4] = Dabrafenib pharmacokinetics in 8HUM mice: effect of rifampicin and ketoconazole; format: in vivo, mouse; details: for Cmax / half-life / AUC: female, 8HUM, mouse, whole blood, po, 10 mg/kg, female 8HUM mice, dabrafenib 10 mg/kg PO; for AUC: read-out: AUC0 t
Description: Pharmacokinetic parameters were calculated by Phoenix WinNonlin version 8.0.0.3176 (Certara, Princeton, NJ).
Fig. 3.

[5] = healthy volunteers; single dose of 200 mg ketoconazole 2 hours prior to midazolam; ref McCrea et al., 1999; cited from earlier work
CYP2C9 [6] = target: T2, CYP2C9 (Homo sapiens, UniProt P11712); test: Enzyme inhibition assay, tolbutamide hydroxylation (HLM, 8HUM microsomes); details: tolbutamide 2 μM in cocktail, furafylline 3, enoxacin 200, fluconazole 300, sulfaphenazole 3, quinidine 3, paroxetine 10, ketoconazole 1 μM
T2 sequence (P11712 whole entry): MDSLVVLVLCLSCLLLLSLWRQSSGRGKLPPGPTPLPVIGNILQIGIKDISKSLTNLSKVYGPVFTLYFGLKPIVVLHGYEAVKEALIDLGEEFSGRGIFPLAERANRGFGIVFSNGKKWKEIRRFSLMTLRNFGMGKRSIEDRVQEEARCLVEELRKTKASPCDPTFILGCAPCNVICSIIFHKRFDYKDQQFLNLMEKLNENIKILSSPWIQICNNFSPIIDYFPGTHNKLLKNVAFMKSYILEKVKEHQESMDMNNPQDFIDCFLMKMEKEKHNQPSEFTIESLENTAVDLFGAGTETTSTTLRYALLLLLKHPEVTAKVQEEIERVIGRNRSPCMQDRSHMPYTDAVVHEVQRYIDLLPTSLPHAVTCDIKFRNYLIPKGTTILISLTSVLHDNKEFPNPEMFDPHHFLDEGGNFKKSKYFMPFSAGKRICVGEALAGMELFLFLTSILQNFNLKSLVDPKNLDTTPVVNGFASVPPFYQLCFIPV
Description: as §1

CYP2C9 [7] = target: T2, CYP2C9; parameters: pooled rifampicin-treated male and female 8HUM mice (8HUM) or pooled human liver microsomes (HLM); host or cells: liver microsomes: pooled human liver; liver of 8HUM mice carrying human CYP2C9 driven by the albumin promoter; details: man; ref Thijssen et al., 2001; cited from earlier work
[8] = Pharmacokinetics of S-acenocoumarol in 8HUM and CypC4KO mice: effect of sulfaphenazole; format: in vivo, mouse; details: S-acenocoumarol 1 mg/kg oral
Description: Mice were administered two daily doses of SJW before receiving a single oral dose of S-acenocoumarol (1 mg/kg). S-acenocoumarol was dissolved in dimethyl sulfoxide (1 mg/ml) and diluted 10-fold in 100 mM potassium phosphate buffer (pH8) or in a solution of sulfaphenazole (9.78 mg/ml) in the same buffer. Compounds were administered to mice at a volume of 10 ml/kg. Blood collection and sample preparation was performed as described above and analytical details are provided in Supplemental Data.
Fig. 6. […] (A) In vitro microsomal stability assay. […] Values show are mean ± S.D.

[9] = Microsomal stability of S-acenocoumarol; details: 1 μM, 2 mg protein/ml
Description: The reaction mixture aliquots were taken at specified time points and mixed with an equal volume of acetonitrile containing warfarin (50 ng/ml) as an internal standard. […] The concentrations of S-acenocoumarol were measured by LC-MS/MS. Chromatographic separation was performed on a Kinetex C18 100 Å column (2.6 μm; 5.0 × 2.1 mm) (Phenomenex) using an injection volume of 10 μl and a run time of 7 minutes. The detector used was a Micromass Quattro Micro mass spectrometer (Waters Corporation) run in electrospray positive ion mode.

[10] = parameters: method as in Thijssen et al., 2001; unit not given beside the values; details: man; ref Thijssen et al., 2001; cited from earlier work
Cyp2b10 = test: Murine Cyp2b10 expression in humanized mice after treatment (immunoblot); format: in vivo, mouse; details: 8HUM mice, dabrafenib 10 mg/kg
Description: We therefore sought to identify a specific, clinically relevant PXR agonist that was nontoxic. […] Subsequent studies were therefore undertaken using SJW to induce CYP3A4 expression in 8HUM mice.
(§2) Fig. 7. […] Arrow indicates position of Cyp2b10 band. GRP78 was used as a loading control.
Fig. 8. Effect of dabrafenib on midazolam pharmacokinetics in 8HUM mice. Adult female 8HUM mice (n = 3) were treated with vehicle or dabrafenib (10 mg/kg) PO daily for 2 days, and on day 3 were administered midazolam (3 mg/kg) PO and PK profiling carried out as described in Materials and Methods. (A) Pharmacokinetic profiling for midazolam in 8HUM mice receiving either vehicle (open circles) or dabrafenib (closed triangles). Data shown are mean ± S.D. (B) Immunoblotting of liver microsomes from 8HUM mice, untreated or treated as above, against mouse and human P450 isozymes. Dab, Dabrafenib; MDZ, midazolam; Unt, untreated; Veh, vehicle. One group of dabrafenib-treated mice (Dab) were sacrificed on day 3 without exposure to midazolam to determine the effects of dabrafenib on P450 expression at the start of the PK profiling. […] Std, standard, recombinant human P450 protein or phenobarbital-treated liver microsomes (Cyp2b10); HLM, human liver microsomes.

8HUM liver microsomes [11] = test: Dextromethorphan O-demethylation in liver microsomes of dabrafenib-treated 8HUM mice; format: in vitro ADME, mouse
Description: After 5 minutes, the reaction was stopped by combining 100 μl of the reaction mixture with 120 μl of 0.2 M hydrochloric acid containing dextrorphan-d3 (92 ng/ml) as an internal standard. […] The concentrations of […] were measured by liquid chromatography–tandem mass spectrometry (LC-MS/MS). […] The multiple reaction monitoring parameters for dextrorphan and dextrorphan-d3 were 258.16 and 261.24 (precursor ions) and 157.04 (one product ion for both compounds), respectively.
(§3) Fig. 8. Effect of dabrafenib on midazolam pharmacokinetics in 8HUM mice. […] Dab, Dabrafenib; MDZ, midazolam; Unt, untreated; Veh, vehicle.

CYP1A2 [12] = target: T1, CYP1A2; test: 7-Methoxyresorufin O-demethylation in liver microsomes of treated 8HUM mice; details: 8HUM liver microsomes, dabrafenib-treated
Description: A mixture of either 7-methoxyresorufin or 7-ethoxyresorufin (1 μM) and 8HUM liver microsomes or HLM (∼0.38 mg protein/ml) in 100 mM potassium phosphate buffer (pH 7.4) supplemented with MgCl2 (3.3 mM) was incubated at 37°C for 5 minutes before the addition of NADPH (final concentration 1.2 mM). […] Slopes of the linear part of the kinetic curves were calculated using Ascent Software Version 2.4.1 (Labsystems). For each reaction two controls, with and without reaction product resorufin (40 pmol) were run. Fluorescence was measured from both control wells and the difference in fluorescence intensity between wells with and without resorufin was used for the conversion of the relative fluorescence units to the picomoles of the reaction product.

8HUM liver microsomes [13] = test: Dibenzylfluorescein O-debenzylation in liver microsomes of dabrafenib-treated 8HUM mice; format: in vitro ADME, mouse; details: for Dibenzylfluorescein O-debenzylation: 8HUM liver microsomes, dabrafenib-treated
Description: The O-debenzylation of dibenzylfluorescein (DBF) was measured as described above for the 7-methoxyresorufin O-demethylation assay, with the following modifications: the DBF concentration was 2 μM; the excitation filter was 485 nm; the emission filter was 530 nm; 20 pmol of the fluorescein was added to the control wells.
as §3

[14] = parameters: method as in Suttle et al., 2015; details: patients, 150 mg twice per day, ref Suttle et al., 2015, cited from earlier work
CYP3A4 = test: Hepatic CYP3A4 expression in 8HUM mice after dabrafenib (immunoblot); format: in vivo, mouse; details: dabrafenib 10 mg/kg PO
Description: Female 8HUM mice received either two daily oral doses of dabrafenib (n = 3; 15 weeks; 10 mg/kg) or vehicle (n = 3; 16 weeks; 0.5% hydroxypropylmethylcellulose, 0.2% Tween 80). On day 3 both groups were administered midazolam (3 mg/kg) by oral gavage. Whole blood collection and sample preparation were performed as described above, and analytical details are described in Supplemental Data. A third group of female 8HUM mice (n = 3; 17–22 weeks) received two daily doses of dabrafenib (10 mg/kg) by oral gavage and were culled for tissue collection on day 3 to allow determination of the effects of dabrafenib on P450 expression at the start of the pharmacokinetic (PK) study.
as §2
Fig. 8. Effect of dabrafenib on midazolam pharmacokinetics in 8HUM mice. Adult female 8HUM mice (n = 3) were treated with vehicle or dabrafenib (10 mg/kg) PO daily for 2 days, and on day 3 were administered midazolam (3 mg/kg) PO and PK profiling carried out as described in Materials and Methods. (A) Pharmacokinetic profiling for midazolam in 8HUM mice receiving either vehicle (open circles) or dabrafenib (closed triangles). Data shown are mean ± S.D. (B) Immunoblotting of liver microsomes from 8HUM mice, untreated or treated as above, against mouse and human P450 isozymes. Dab, Dabrafenib; MDZ, midazolam; Unt, untreated; Veh, vehicle. […]

Cytochrome c reductase = Cytochrome c reductase activity in liver microsomes of dabrafenib-treated 8HUM mice; format: in vitro ADME, mouse; details: 8HUM liver microsomes
Description: A mixture of cytochrome c from bovine heart (40 μM) and mouse liver microsomes (∼7.6 μg/ml) in 0.3 M potassium phosphate buffer (pH 7.7) was incubated at 37°C for at least 2 minutes before the reaction was started by addition of NADPH (0.1 mM final concentration). The absorbance at 550 nm was recorded and the reaction rate calculated from the linear region of the absorbance time course. The extinction coefficient of 0.0211 μM^−1cm^−1 was used ([van Gelder and Slater, 1962]) to calculate concentration of the reduced cytochrome c.
as §3

CYP2D6 [15] = tested on: CYP2D6; parameters: method as in VandenBrink et al., 2012; details: man; ref VandenBrink et al., 2012; cited from earlier work
[16] = Rifampicin 10 mg/kg i.p. daily for 3 days
[17] = Rifampicin + ketoconazole 20 mg/kg PO 30 minutes before
[18] = Vehicle (corn oil) pretreatment

N=C(N)N1CCc2ccccc2C1 [Debrisoquine, debrisoquine]
CYP2D6 fm (fraction metabolized) [1]: 0.88 | Km at 40 min (CYP2D6 [2]; pH 7.4): 25 ± 7 µM | Vmax (CYP2D6 [2]): 25 ± 2 pmol/min per milligram protein

CC(=O)N1CCN(c2ccc(OCC3COC(Cn4ccnc4)(c4ccc(Cl)cc4Cl)O3)cc2)CC1 (stereo not drawn) [Ketoconazole, ketoconazole]
Caffeine (Paraxanthine) activity, percent of activity measured in the absence of inhibitor (CYP1A2 [3]; 8HUM microsomes […]): 85 ± 34% | Caffeine (Paraxanthine) activity, percent of activity measured in the absence of inhibitor (CYP1A2 [3]; HLM […]): 135 ± 45% | Effect of prior ketoconazole on dabrafenib exposure (Cmax and AUC) ([4]; rifampicin-treated female 8HUM mice, ketoconazole 20 mg/kg PO 30 min before dabrafenib): approximately doubling both the Cmax and AUC | Increase of midazolam AUC [5]: ~5 fold | Tolbutamide (OH-Tolbutamide) activity, percent of activity measured in the absence of inhibitor (CYP2C9 [6]; 8HUM microsomes […]): 92 ± 11% | Tolbutamide (OH-Tolbutamide) activity, percent of activity measured in the absence of inhibitor (CYP2C9 [6]; HLM […]): 154 ± 66%

CC(=O)C[C@@H](c1ccc([N+](=O)[O-])cc1)c1c(O)c2ccccc2oc1=O [S-acenocoumarol]
fraction metabolized by CYP2C9 (CYP2C9 [7]): 0.94 | AUC ([8]; SJW-pretreated 8HUM mice, coadministered sulfaphenazole): 2008 ± 159 ng·h/mL | AUC ([8]; SJW-pretreated 8HUM mice, vehicle-treated): 230 ± 30 ng·h/mL | AUC ([8]; SJW-pretreated CypC4KO mice): 2520 ± 214 ng·h/mL | Metabolism in liver microsomes ([9]; liver microsomes from CYP2C9 humanized mice): rapidly metabolized | Metabolism in liver microsomes ([9]; microsomes from wild-type, Cyp2cKO, Cyp2c/2d/3a KO, or hepatic P450 reductase-null mice): practically indistinguishable from that in the no cofactor control | AUCR in CYP2C9 extensive versus poor metabolizers [10]: 16.3

CC(C)(C)c1nc(-c2cccc(NS(=O)(=O)c3c(F)cccc3F)c2F)c(-c2ccnc(N)n2)s1 [dabrafenib]
Induction of murine Cyp2b10 (Cyp2b10): induced weakly | Dextromethorphan O-demethylation (8HUM liver microsomes [11]; 24 h after final dose): 726 ± 24 | Dextromethorphan O-demethylation (8HUM liver microsomes [11]; 48 h after final dose): 614 ± 28 | Methoxyresorufin O-demethylation (CYP1A2 [12]; 24 h after final dose): 52 ± 4 | Methoxyresorufin O-demethylation (CYP1A2 [12]; 48 h after final dose): 36 ± 1 | Cmax [4, 16]: 1740 ± 733 ng/mL | half-life [4, 16]: 1.4 ± 0.3 h | AUC [4, 16]: 6150 ± 2930 ng·h/mL | Cmax [4, 17]: 3650 ± 1220 ng/mL | half-life [4, 17]: 1.8 ± 0.1 h | AUC [4, 17]: 12900 ± 2710 ng·h/mL | Cmax [4, 18]: 3740 ± 613 ng/mL | half-life [4, 18]: 2.6 ± 0.4 h | AUC [4, 18]: 21900 ± 1690 ng·h/mL | Dibenzylfluorescein O-debenzylation (8HUM liver microsomes [13]; 24 h after final dose): 440 ± 31 | Dibenzylfluorescein O-debenzylation (8HUM liver microsomes [13]; 48 h after final dose): 151 ± 5 | Increase of 7-benylfluorescein O-debenzylation (8HUM liver microsomes [13]; 24 hours after the second dabrafenib dose, vs vehicle): approximately 5.5 fold | Elevation of 7-benylfluorescein O-debenzylation (8HUM liver microsomes [13]; 24 hours later (48 h after final dabrafenib dose), vs control): about twice control values | AUC0-t ([14]; day 1): 9359 ng·h/mL | half-life ([14]; day 1): 4.2 h | AUC0-t ([14]; day 18): 6545 ng·h/mL | half-life ([14]; day 18): 2.1 h | CYP3A4 induction (CYP3A4): potent PXR activator and CYP3A4 inducer; also recorded: is a CYP3A4 inducer; also recorded: induction of CYP3A4 | Cytochrome c reductase (Cytochrome c reductase; 24 h after final dose): 301 ± 19 | Cytochrome c reductase (Cytochrome c reductase; 48 h after final dose): 244 ± 19

CNCCCN1c2ccccc2CCc2ccccc21 [desipramine]
CYP2D6 fm (CYP2D6 [15]): 0.88
